The values that follow are results of earlier work, collected in patent publication US20080234352A1, “Controlled release solid dispersions” (EGALET A/S, priority 2001, published 2008).

A word on the pKa: it is the pH at which an ionisable group is half protonated.

The structures appear in SMILES notation. Read-outs that look alike come from different tables or passages of the source. Some results are limits rather than exact numbers.

Assay in data set [1]: not given
This is another data set of the same source.

On to `CN(C)C` [Trimethylamine], for which, under “no step given”, the pKa is reported as 9.74.

As for `O=C(O)c1cc(C(=O)O)c(C(=O)O)c(C(=O)O)c1C(=O)O` [Benzenepentacarboxylic], the pKa runs as follows: (pKa2) 2.95; (pKa3) 3.94; (pKa4) 5.07; (pKa5) 6.25.

With `O=C(O)C(O)c1ccccc1` (stereo not drawn) [Mandelic], the pKa (no step given) is listed as 3.36.

As to `O=C(O)CC(O)C(=O)O` (stereo not drawn) [Malic], the pKa reads like this: (pKa1) 3.40; (pKa2) 5.05.

For the molecule `O=C(O)c1cccc(C(=O)O)c1C(=O)O` [Benzene-1,2,3-tricarboxylic (hemimellitic)], the pKa is, setting by setting: (pKa1) 2.98; (pKa2) 4.25; (pKa3) 5.87.

As for `O=S(=O)(O)CCCNC(CO)(CO)CO` [TAPS, N-Tris(hydroxymethyl)methyl-2-aminopropane suifonic acid], under “pKa2”, the pKa is 8.40.

For `O=C(O)c1cc(C(=O)O)cc(C(=O)O)c1` [Benzene-1,3,5-tricarboxylic (trimesic)], the pKa is, setting by setting: (pKa1) 3.16; (pKa2) 3.98; (pKa3) 4.85.

On to `O=S(=O)(O)CCN1CCN(CCS(=O)(=O)O)CC1` [PIPES, 1,4-Piperazinebis-(ethanesulfonic acid)], for which the pKa by setting is: (pKa3) 3.00; (pKa4) 6.8.

As to `O=C(O)c1ccccc1C(=O)O` [Phthalic], under “no step given”, the pKa is recorded as 2.90.

As for `CC(CC(=O)O)(CC(=O)O)C(=O)O` [2-Methylpropane-1,2,3-triscarboxylic], the pKa is on record as 5.02 (pKa2) and 7.20 (pKa3).

On to `O=C(O)c1cc(C(=O)O)c(C(=O)O)cc1C(=O)O` [Benzene-1,2,4,5-tetracarboxylic (pyromellitic)], for which the pKa was 2.43 (pKa1), 3.13 (pKa2), 4.44 (pKa3) and 5.61 (pKa4).

As to `CN` [Methylamine], the pKa (no step given) was 10.64.

As to `O=C(O)CC(C(=O)O)C(CC(=O)O)C(=O)O` (stereo not drawn) [Butane-1,2,3,4-tetracarboxylic], the pKa reads like this: (pKa2) 4.38; (pKa3) 5.45; (pKa4) 6.63.

Regarding `O=S(=O)(O)CCCNC1CCCCC1` [CAPS, 3-Cyclohexylamino-I-propanesulfonic acid], where the note is “pKa2”, the pKa was 10.40.

As for `COc1ccccc1OCCNCC(O)COc1cccc2[nH]c3ccccc3c12` (racemic) [Carvedilol], the “alpha-mediated vasodilatory effects (decreased peripheral resistance and blood pressure) evident within” value in data set [1] (administration of an IR formulation) was at most 30 min. Also, in data set [1] (in vivo), the binding to plasma result is recorded as “highly bound” and the “dose excreted unchanged in the urine” value is on record as “less than 2%”. Further, the dose linearity range in data set [1] (literature) is 6.25 to 50 mg. In data set [1] (oral administration), the “time to peak plasma concentrations” value is listed as “one to two”. The “absorption in the large intestine, share of the total absorption” value in data set [1] (timed-release capsules, study by Nolte et al) is listed as “approximately 10%”.

`O=C(O)CC1(CC(=O)O)CCCC1` [I,I-Cyclopentanediacetic, I,I-Cyclopentanediacetic (3,3 tetramethylene glutaric acid)]: the pKa by setting is: (pKa1) 3.82; (pKa2) 6.70.

On to `C=C(CC(=O)O)C(=O)O` [Itaconic], for which the pKa reads like this: (pKa1) 3.84; (pKa2) 5.55.

For the molecule `O=S(=O)(O)CCCN1CCN(CCO)CC1` [EPPS, 4-(2-Hydroxyethyl)-I-piperazinepropane sulfonic acid], the pKa (no step given) is recorded as 8.00.

As for `COc1cc2c(cc1OC)[C@@]13CCN4CC5=CCO[C@H]6CC(=O)N2[C@H]1[C@H]6[C@H]5C[C@H]43.O.O.O.O` [Brucine tetrahydrate], the pKa reads like this: (pKa1) 2.30; (pKa2) 7.95.
